Experimental data published in US7087634B2, “Cyclic AMP-specific phosphodiesterase inhibitors” (ICOS Corporation, priority 1999, dated 2006).

How the values were obtained:
[1] = Combined mouse locomotor activity assay (sedative / CNS side-effect scoring); format: in vivo; design: key: Vehicle control animals were rated a single “+”; animals that were effectively immobilized and stretched out on the bottom of the cage with little detectable movement were rated as “++++.”; conditions: female Balb/c mice, i.p., 10 mg/kg
Description: (§1) The purpose of this study was to determine the efficacy of PDE4 inhibitors in vivo in an LPS mouse model together with a determination with respect to central nervous system (CNS) side-effects manifested by a decrease in spontaneous mobility.
(§2) The test animals were female Balb/c mice, having an average weight of about 20 g. The PDE4 inhibitors, formulated in 30% Cremophor® EL, were administered via intraperitoneal (i.p.) injections at doses of 0.1, 1.0, 10.0, and 100 mg/kg. Individual dose volumes (about 150 μL) were adjusted based on the body weights measured. One hour later, 5 mg/kg LPS in a final volume of 200 μL was injected via the tail vein to each animal. Ninety minutes following the LPS treatment, the animals were bled and serum samples were collected before being stored at −70° C. until assayed.
For side-effect profiling, a subjective visual scoring system was utilized at 5 min and 20 min after administration of PDE4 inhibitors. […] In this instance, the subjects could be monitored continuously over pre-set intervals.
Movement of the X-Y plane, or rearing up on the hind legs, was quantified by counting the number of “light-beam” crosses per unit of time. […] The quantitative scoring correlated well with the subjective measurements described above.

serum TNFα = test: Combined mouse endotoxin-stimulated TNFα release assay (serum TNFα); format: in vivo; conditions: female Balb/c mice, i.p., LPS model
Description: as §1, §2
For efficacy determination, the serum samples were diluted two-fold and TNFα levels were determined using the CYTOSCREEN® Immunoassay Kit (Biosource International). The data were averaged between triplicate sample subjects for each of the tested compounds.

[2] = test system: TNFα release from human peripheral blood lymphocytes; test: Lipopolysaccharide-stimulated TNFα release from human peripheral blood lymphocytes; format: cell-based; conditions: preliminary experiments
Description: The compounds of structural formulae (I) and (II) were tested for an ability to reduce TNFα secretions in human peripheral blood lymphocytes. The ability of a compound to reduce TNFα secretion is related to the EC50 value for the compound (i.e., the effective concentration of the compound capable of inhibiting 50% of the total TNFα).
To assess the ability of a compound to reduce TNFα secretion in human peripheral blood lymphocytes (PBL), the following tests were performed.
Heparinized blood (approximately 30 mL) drawn from human volunteers was mixed 1:1 with Dulbecco's modified phosphate-buffered saline. This mixture was mixed 1:1 with HISTOPAQUE® and centrifuged at 1,500 rpm at room temperature without braking in the swinging bucket of a Beckman model TJ6 centrifuge. Erythrocytes were centrifuged to the bottom of the tubes, and serum remained at the surface of the tubes. A layer containing lymphocytes sedimented between the serum and HISTOPAQUE® layers, and was removed by aspiration to a fresh tube. The cells were quantified and adjusted to […] and a 100 μL aliquot is placed into the wells of a 96 well plate. Test compounds and RPMI media (Gibco/BRL Life Sciences) are added to each of the wells 15 minutes prior to addition of bacterial LPS ([…]). The mixture was allowed to incubate for 20 hours at 37° C. in a humidified chamber. The cells then were separated by centrifuging at 800 rpm for 5 minutes at room temperature. An aliquot of 180 μL of supernatant was transferred to a new plate for determination of TNFα concentration. TNFα protein in the cell supernatant fluids was measured using a commercially available enzyme-linked immunosorbent assay (ELISA) (CYTOSCREEN® Immunoassay Kit from Biosource International).
(§3) The cell-based assay provided the following results for various compounds of the present invention. The EC50. values (i.e., effective concentration of the compound capable of inhibiting 50% of the total TNFα) illustrate the ability of the present compounds to inhibit LPS-stimulated TNFα release from human PBL.
as §3, with “various pyrazole” for “various”, “EC50” for “EC50.”, “concentrations” for “concentration”, “peripheral blood lymphocytes.” for “PBL.”

recombinant human PDE4 = conditions: background, reported value; read-out: reported IC50 with respect to recombinant human PDE4; cited from earlier work

SMILES | Sedative Effect [1] | % TNFQ Inhibition (serum TNFα; 1 mg/kg) [%] | % TNFQ Inhibition (serum TNFα; 10 mg/kg) [%] | % TNFQ Inhibition (serum TNFα; 100 mg/kg) [%] | LPS-induced TNFα secretion from human lymphocytes [2] | IC50 (recombinant human PDE4) [nM]
COC(=O)N1C[C@@H](c2ccc(OC)c(OC3CCCC3)c2)[C@](C)(C(C)=O)C1 (relative stereo) [Comparative Example, trans-3-(3-cyclopentoxy-4-methoxyphenyl)-1-methoxycarbonyl-4-methyi-4-(methylcarbonyi)pyrrolidine] | + | 43 | 100 | 100 |  | 
COc1ccc(C2CNC(=O)C2)cc1OC1CCCC1 (stereo not drawn) [Rolipram, reference compound] |  |  |  |  | inhibit LPS-induced TNFα secretion from human lymphocytes in a dose-dependent fashion | ~200
